Test results as given in PubChem BioAssay AID2060905 (Molecular Pharmacology Branch, DTP, NCI, 2025).

Tested on: 282377-053-R-J1-PDC complex spheroid viability
Assay: Anticancer human tumor 282377-053-R-J1-PDC patient-derived colon adenocarcinoma cell line growth inhibition [RAS]
Conditions: for IC50: curve of first compound; for viability, T/C: stronger effect = lower value
Excerpt: RAS pathway inhibitors in Combinations in Complex Spheroids
A high-throughput screen of multi-cell type tumor spheroids was designed to identify active combinations of RAS pathway inhibitors and targeted small molecules. Complex spheroids include a stromal component modeled by human endothelial cells (HUVEC) and fibroblasts modeled by human mesenchymal stem cells (MSCs). The concentration ranges selected for each drug and investigational agent were based upon clinically achievable concentrations if the clinical Cmax of the agent was known.
Compounds. The drugs and investigational agents: abemaciclib (NSC768073), cobimetinib (NSC768068), divarasib (GDC6063, NSC841802), docetaxel (NSC628503), GDC-1971 (RLY-1971, NSC841576), gemcitabine (NSC613327), inavolisib (NSC800729), ipatasertib (NSC767898), KB-0742 (NSC834161), MRTX-1133 (NSC836407), osimertinib (NSC779217), RMC-4630 (NSC839698), RMC-6236 (NSC851965), RMC-6291 (NSC852671), Ro-3306 (NSC812927), sapanisertib (NSC764658), SN-38 (NSC673596), staurosporine (NSC755774), SY5609 (NSC837396), and tovorafenib (DAY101, NSC766906), were obtained from the National Cancer Institute (NCI) Developmental Therapeutics Program Chemical Repository. The FDA-approved anticancer drug set is available from the NCI Developmental Therapeutics Program. […] The stock solutions were prepared in dimethyl sulfoxide (DMSO, Sigma-Aldrich, St. Louis, MO, cat. D2650) at 800-fold the tested concentration and stored at -70 degrees C prior to their use. All drugs and investigational agents were tested over a range starting from a high concentration at or near the clinical Cmax and decreasing in half-log increments. If the clinical Cmax for an agent had not been determined, the highest concentration tested was 10 microM.
Cell Culture. All cells were maintained in an incubator at 37 degrees C and 5% CO2 with 95% humidity. The PDC lines were cultured according to standard operating procedures established by the NCI PDMR. All PDCs were thawed and cultured in Matrigel-coated flasks prepared with a working solution of 1X Ham's F-12 nutrient mix, without supplementation (Invitrogen, Waltham, MA, cat. 11765054), 100 U/mL penicillin-streptomycin (Invitrogen, cat. 15140122), and 2.5% Matrigel (Corning Inc., Corning, NY, cat. 354248) for the first three passages. The 362531-283-R-J2-PDC and 782815-120-R-J1-PDC lines were cultured in 6C/Colon 1B media, which includes advanced DMEM/F-12 (Thermo Fisher Scientific, cat. 12634028), 10 mM HEPES (Thermo Fisher Scientific, cat. 15630080), 1X GlutaMAX supplement (Thermo Fisher Scientific, cat. 35050061), 0.1 mg/mL primocin (InvivoGen, San Diego, CA, cat. ant-pm-2), 10% defined fetal bovine serum, heat inactivated (HyClone Laboratories Inc., Logan, UT, cat. SH30070.03HI), 50% L-WRN conditioned media (ATCC, cat. CRL-3276), 1.25 mM N-Acetyl-L-cysteine (Sigma-Aldrich, cat. A9165), 10 mM nicotinamide (Sigma-Aldrich, cat. N0636), 1X B-27 supplement (Thermo Fisher Scientific, cat. 17504044), 1X N-2 supplement (Thermo Fisher Scientific, cat. 17502048), 50 ng/mL human EGF (Thermo Fisher Scientific, cat. PHG0311), and 10 microM Y-27632 dihydrochloride (Tocris Bioscience, cat. 1254). The K12877-001-R-J1-PDC line was cultured in 6I media, which includes all 6C/Colon 1B media plus 10 ng/mL human FGF-10 (PeproTech, cat. 100-26), 1 ng/mL human FGF-2 (PeproTech, cat. 100-18B), 1 µM prostaglandin E2 (Tocris Bioscience, cat. 2296), […] hydrocortisone (Sigma-Aldrich, cat. H4001), and […] bovine insulin (Sigma-Aldrich, cat. I6634). The K86415-001-R-J1-PDC line was cultured in 6D media, which includes all 6C/Colon 1B media components minus the L-WRN conditioned media. The 485176-168-R4-J1-PDC was cultured in PANC media, which includes all 6C/Colon 1B media plus 100 ng/mL human FGF-10 (PeproTech, cat. 100-26), 500 nM SB-431542 (Selleckchem, cat. S1067), and 10 nM gastrin (Tocris Bioscience, cat. 3006). […]

[1] = second compound 0.0316 µM, first compound 0.0316 µM
[2] = second compound 0.0316 µM, first compound 0.1 µM
[3] = second compound 0.0316 µM, first compound 0.316 µM
[4] = second compound 0.0316 µM, first compound 1 µM
[5] = second compound 0.0316 µM, first compound 3.16 µM
[6] = second compound 0.0316 µM, first compound 10 µM
[7] = second compound 0.1 µM, first compound 0.0316 µM
[8] = second compound 0.1 µM, first compound 0.1 µM
[9] = second compound 0.1 µM, first compound 0.316 µM
[10] = second compound 0.1 µM, first compound 1 µM
[11] = second compound 0.1 µM, first compound 3.16 µM
[12] = second compound 0.1 µM, first compound 10 µM
[13] = second compound 0.316 µM, first compound 0.0316 µM
[14] = second compound 0.316 µM, first compound 0.1 µM
[15] = second compound 0.316 µM, first compound 0.316 µM
[16] = second compound 0.316 µM, first compound 1 µM
[17] = second compound 0.316 µM, first compound 3.16 µM
[18] = second compound 0.316 µM, first compound 10 µM
[19] = second compound 1 µM, first compound 0.0316 µM
[20] = second compound 1 µM, first compound 0.1 µM
[21] = second compound 1 µM, first compound 0.316 µM
[22] = second compound 1 µM, first compound 1 µM
[23] = second compound 1 µM, first compound 3.16 µM
[24] = second compound 1 µM, first compound 10 µM
[25] = second compound 3.16 µM, first compound 0.0316 µM
[26] = second compound 3.16 µM, first compound 0.1 µM
[27] = second compound 3.16 µM, first compound 0.316 µM
[28] = second compound 3.16 µM, first compound 1 µM
[29] = second compound 3.16 µM, first compound 3.16 µM
[30] = second compound 3.16 µM, first compound 10 µM
[31] = second compound 10 µM, first compound 0.0316 µM
[32] = second compound 10 µM, first compound 0.1 µM
[33] = second compound 10 µM, first compound 0.316 µM
[34] = second compound 10 µM, first compound 1 µM
[35] = second compound 10 µM, first compound 3.16 µM
[36] = second compound 10 µM, first compound 10 µM
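Also: spheroids exposed to agents for seven days before readout.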
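For viability, T/C in this document: luminescence viability as percent of DMSO vehicle control wells.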

CC(C)NCC(C(=O)N1CCN(c2ncnc3c2C(C)CC3O)CC1)c1ccc(Cl)cc1 (stereo unspecified) + C#Cc1c(F)ccc2cc(O)cc(-c3ncc4c(N5CC6CCC(C5)N6)nc(OCC56CCCN5CC(F)C6)nc4c3F)c12
IC50 (second compound 0.0316 µM): > 10 µM
IC50 (second compound 0.1 µM): > 10 µM
IC50 (second compound 0.316 µM): > 10 µM
IC50 (second compound 1 µM): > 10 µM
IC50 (second compound 3.16 µM): > 10 µM
IC50 (second compound 10 µM): > 10 µM
viability, T/C [1]: 133%
viability, T/C [2]: 111%
viability, T/C [3]: 88.9%
viability, T/C [4]: 94.6%
viability, T/C [5]: 84.1%
viability, T/C [6]: 82.3%
viability, T/C [7]: 88.5%
viability, T/C [8]: 86.5%
viability, T/C [9]: 76.9%
viability, T/C [10]: 90.3%
viability, T/C [11]: 83.5%
viability, T/C [12]: 72.2%
viability, T/C [13]: 104%
viability, T/C [14]: 110%
viability, T/C [15]: 92.8%
viability, T/C [16]: 83%
viability, T/C [17]: 85.9%
viability, T/C [18]: 85.3%
viability, T/C [19]: 105%
viability, T/C [20]: 79.8%
viability, T/C [21]: 89.2%
viability, T/C [22]: 82.5%
viability, T/C [23]: 63.7%
viability, T/C [24]: 69.5%
viability, T/C [25]: 98.5%
viability, T/C [26]: 96.7%
viability, T/C [27]: 81.4%
viability, T/C [28]: 77.7%
viability, T/C [29]: 92.1%
viability, T/C [30]: 70.4%
viability, T/C [31]: 83%
viability, T/C [32]: 87.7%
viability, T/C [33]: 88.9%
viability, T/C [34]: 91.4%
viability, T/C [35]: 86.4%
viability, T/C [36]: 72.4%

CC(C)n1nc(-c2ccc3oc(N)nc3c2)c2c(N)ncnc21 + C#Cc1c(F)ccc2cc(O)cc(-c3ncc4c(N5CC6CCC(C5)N6)nc(OCC56CCCN5CC(F)C6)nc4c3F)c12
IC50 (second compound 0.0316 µM): > 0.1 µM
IC50 (second compound 0.1 µM): > 0.1 µM
IC50 (second compound 0.316 µM): 0.0881 µM
IC50 (second compound 1 µM): > 0.1 µM
IC50 (second compound 3.16 µM): 0.0783 µM
IC50 (second compound 10 µM): > 0.1 µM
viability, T/C (second compound 0.0316 µM, first compound 0.000316 µM): 101%
viability, T/C (second compound 0.0316 µM, first compound 0.001 µM): 87.2%
viability, T/C (second compound 0.0316 µM, first compound 0.00316 µM): 105%
viability, T/C (second compound 0.0316 µM, first compound 0.01 µM): 77.5%
viability, T/C [1]: 72.7%
viability, T/C [2]: 56.9%
viability, T/C (second compound 0.1 µM, first compound 0.000316 µM): 115%
viability, T/C (second compound 0.1 µM, first compound 0.001 µM): 107%
viability, T/C (second compound 0.1 µM, first compound 0.00316 µM): 89%
viability, T/C (second compound 0.1 µM, first compound 0.01 µM): 77.7%
viability, T/C [7]: 66.6%
viability, T/C [8]: 50.2%
viability, T/C (second compound 0.316 µM, first compound 0.000316 µM): 99.8%
viability, T/C (second compound 0.316 µM, first compound 0.001 µM): 99.6%
viability, T/C (second compound 0.316 µM, first compound 0.00316 µM): 80.8%
viability, T/C (second compound 0.316 µM, first compound 0.01 µM): 71.1%
viability, T/C [13]: 69.4%
viability, T/C [14]: 45.3%
viability, T/C (second compound 1 µM, first compound 0.000316 µM): 104%
viability, T/C (second compound 1 µM, first compound 0.001 µM): 81.2%
viability, T/C (second compound 1 µM, first compound 0.00316 µM): 82.9%
viability, T/C (second compound 1 µM, first compound 0.01 µM): 66.4%
viability, T/C [19]: 75.9%
viability, T/C [20]: 46.8%
viability, T/C (second compound 3.16 µM, first compound 0.000316 µM): 87%
viability, T/C (second compound 3.16 µM, first compound 0.001 µM): 76%
viability, T/C (second compound 3.16 µM, first compound 0.00316 µM): 91.5%
viability, T/C (second compound 3.16 µM, first compound 0.01 µM): 81.1%
viability, T/C [25]: 76.3%
viability, T/C [26]: 42.8%
viability, T/C (second compound 10 µM, first compound 0.000316 µM): 108%
viability, T/C (second compound 10 µM, first compound 0.001 µM): 91.5%
viability, T/C (second compound 10 µM, first compound 0.00316 µM): 84.6%
viability, T/C (second compound 10 µM, first compound 0.01 µM): 72%
viability, T/C [31]: 52.7%
viability, T/C [32]: 60.7%

C[C@@H](NC(=O)c1ncnc(N)c1Cl)c1ncc(C(=O)Nc2cc(C(F)(F)F)c(Cl)cn2)s1 + C#Cc1c(F)ccc2cc(O)cc(-c3ncc4c(N5CC6CCC(C5)N6)nc(OCC56CCCN5CC(F)C6)nc4c3F)c12
IC50 (second compound 0.0316 µM): > 10 µM
IC50 (second compound 0.1 µM): > 10 µM
IC50 (second compound 0.316 µM): > 10 µM
IC50 (second compound 1 µM): > 10 µM
IC50 (second compound 3.16 µM): > 10 µM
IC50 (second compound 10 µM): > 10 µM
viability, T/C [1]: 121%
viability, T/C [2]: 99.5%
viability, T/C [3]: 89.2%
viability, T/C [4]: 86.5%
viability, T/C [5]: 87.1%
viability, T/C [6]: 78.5%
viability, T/C [7]: 103%
viability, T/C [8]: 111%
viability, T/C [9]: 88.7%
viability, T/C [10]: 76.7%
viability, T/C [11]: 79.6%
viability, T/C [12]: 93.5%
viability, T/C [13]: 105%
viability, T/C [14]: 112%
viability, T/C [15]: 84.8%
viability, T/C [16]: 91.2%
viability, T/C [17]: 75.7%
viability, T/C [18]: 71.7%
viability, T/C [19]: 104%
viability, T/C [20]: 86.6%
viability, T/C [21]: 94.1%
viability, T/C [22]: 67%
viability, T/C [23]: 90.4%
viability, T/C [24]: 77%
viability, T/C [25]: 79.9%
viability, T/C [26]: 101%
viability, T/C [27]: 104%
viability, T/C [28]: 77.5%
viability, T/C [29]: 80.9%
viability, T/C [30]: 80.3%
viability, T/C [31]: 91.3%
viability, T/C [32]: 102%
viability, T/C [33]: 91.9%
viability, T/C [34]: 85%
viability, T/C [35]: 90.8%
viability, T/C [36]: 86.9%
